Data reported in patent US7759399B2, “Pharmaceutical compositions” (priority 2002, dated 2010).
Read-outs that look alike come from different tables or passages of the source.

Assays:
[1] = tested on: uninfected 37RC cells; conditions: monkey
[2] = in vitro; assay type: cell-based; conditions: 37RC cells, 24 h treatment; read-out: LC50 (50% lethal dose/concentration), Neutral Red
Experimental: Cell viability was determined using the Neutral Red assay. 37RC cells were seeded at density of 6×10^4 cells/well in 24-well plates and incubated for 24 h. Confluent 37RC monolayers were treated with the test compounds at different dilutions for 24 h at 37° C. After incubation, the medium was removed and the cells were incubated with RPMI medium containing 40 μg/ml Neutral Red dye (500 μl/well). After 2 h at 37° C., the monolayers were washed with phosphate-buffered saline (PBS) and then with a solution containing 1% CaCl2 and 0.5% formaldehyde. After washing, a solution containing 1% acetic acid/50% ethanol was added to the monolayers (250 μl/well). After 10 min at room temperature, the absorbance was determined with a microplate reader (Victor 1420, Wallac) at 540 nm.

[3] = tested on: HSF; assay: HSF luciferase reporter assay, HeLa cell clone 13B (human hsp70 promoter); assay type: cell-based; conditions: 8 h, HeLa clone 13B, 8 h treatment, serum-free medium, read-out: HSF, AC200 (concentration at which the compound doubled the HSF activity)
Experimental: (§1) Method: HeLa cell clone 13B, stably transfected with a luciferase reporter plasmid controlled by the human hsp70 promoter, and HeLa κB-transformed cells, stably transfected with a luciferase reporter plasmid controlled by a synthetic NF-κB-STM construct, were maintained in DMEM medium supplemented with 10% FBS, L-glutamine (2 mM) and G418 (250 μg/ml) at 37° C. in a 5% CO2 humidified atmosphere.
(§2) Cells were seeded at a density of 4×10^4 cells/well in 96-well plates. After 18-20 h, the medium was removed and cells were treated for 8 h with the test compounds (100 μl) at the appropriate dilutions in serum-free medium. For the NF-κB-dependent reporter gene assay, cells were stimulated with TPA (25 ng/ml) 2 h after exposure to the compounds.
(§3) After incubation, the medium was removed and cells were lysed in 10 μl of lysis buffer. The luciferase activity was determined by adding 100 μl of substrate and measuring the release of light using a Victor 1420 microplate reader (Wallac, Finland).
(§4) The AC200/μM for HSF is the concentration at which the tested compound doubled the HSF activity in this assay. The IC50/μM for NF-κB is the concentration at which the tested compound halved the NF-κB activity in this assay.

[4] = tested on: Sendai virus; assay: Sendai virus replication in 37RC cells (virus yield by HAU titration); assay type: cell-based; conditions: Respirovirus muris, 5 HAU/10^5 cells, virus yield at 24 hours after infection, read-out: ID50 (50% inhibitory dose/concentration), Sendai virus yield
[5] = tested on: NF-κB; assay: NF-κB-dependent luciferase reporter gene assay, HeLa κB-transformed cells, TPA stimulated; assay type: cell-based; conditions: Homo sapiens, HeLa, 8 h treatment, TPA 25 ng/ml 2 h after exposure, read-out: NF-κB, IC50 (concentration at which the compound halved the NF-κB activity)
Experimental: as §1, §2, §3
The fragment Kpn I-BamH I from the pGL3 basic vector containing the luciferase gene (PROMEGA) was inserted in the pcDNA3 vector (INVITROGEN) digested with Bgl II-KpnI. (This digestion removes the CMV-promoter from pcDNA3.) The resulting new vector was digested with Kpn I-Hind III and a promoter containing a ‘5xNF-κB binding sites—TATA box’ sequence was inserted upstream of the luciferase gene. This vector has been named STM.
To obtain stable HeLa cell lines expressing the luciferase gene under the control of NF-κB, HeLa cells were transfected (using lipofectamine plus GIBCO) with the STM-Pvu I linearized vector, and selected for 20 days with G418 (800 μg/ml). After selection, the resistant HeLa cell pool was controlled (in quadruplicate samples) for luciferase activity after stimulation with TNFα, IL-1 and TPA.
as §4

[6] = tested on: NF-κB; assay: EMSA of NF-κB DNA-binding activity in TPA-stimulated Jurkat T cells; assay type: cell-based, Human; conditions: Jurkat T cells treated 1 hour, then TPA 25 ng/ml, extracts after 3 hours; FIGS. 1(b)-6(b)
Experimental: Methods: Human lymphoblastoid Jurkat T cells were grown at 37° C. in a 5% CO2 atmosphere in RPM1 1640 medium (GIBCO BRL, Gaithersburg, Md.) supplemented with 10% fetal calf serum (FCS, Hyclone Europe Ltd, UK) 2 mM glutamine and antibiotics according to the method described by A. Rossi et al. (Proc. Natl. Acad. Sci. USA 94: 746-750, 1997). The test compounds were stored as a 100% ethanolic stock solution (100 mM) or in DMSO (100 mM) and diluted to the appropriate concentration in culture medium at the time of use. Cells were treated with different concentrations of test compound for 1 hour and then stimulated with 12-O-tetradecanoylphorbol-13-acetate (TPA, 25 ng/ml), which is a strong inducer of NF-κB. Control cells received an equal amount of control diluent. After 3 hours whole-cell extracts were prepared and subjected to analysis of DNA-binding activity by EMSA (Electrophoretic Mobility Shift Assay) for detection of HSF or NF-κB activation, according to the method described by A. Rossi et al. (Proc. Natl. Acad. Sci. USA 94: 746-750, 1997).
Specificity of protein-DNA complexes was verified by immunoreactivity with polyclonal antibodies specific for p65 (Rel A) or for HSF-1, for NF-κB and HSF respectively. Quantitative evaluation of NF-κB and HSF-DNA complex formation was determined by Molecular Dynamics Phosphorimager (MDP) analysis and was expressed in arbitrary units, as described in A. Rossi et al. (J. Biol. Chem. 273: 16446-16452, 1998). The results from representative experiments are shown in FIGS. 1(b), 2(b), 3(b), 4(b), 5 and 6(b) for compounds CTM-50, CTM-49, CTM-36, CTM-30, CTC-130 and CTC-109, as identified above.

[7] = tested on: uninfected 37RC cells; assay: Toxicity to uninfected cells, determined visually by microscopy (TD100)
[8] = Alamar Blue cytotoxicity assay; assay type: cell-based; conditions: human
Experimental: HeLa cells were plated in 96-well microtiter plates in 100 μl culture medium (4×10^4/well). After 20 hours, the cells were exposed to the test compounds at different dilutions and incubated for the next 8 h at 37° C. in a 5% CO2 humidified atmosphere. After 6 h incubation, the Alamar Blue was added in an amount equal to 10% of the culture volume (10 μl). Two hours after the addition of the Alamar Blue, the fluorescence was measured using a Victor 1420 microplate reader.
The LC50/μM is the concentration at which the tested compound killed half the cells in this assay.

Row | Compound | TD100 (dose or concentration at which the compound was 100% toxic to uninfected cells) [1] | CC50 at 24 h [2] | EC (2-fold) [3] | IC50 ([4]; 24 h) | IC50 [5] | NF-κB-DNA complex formation (EMSA), result in words [6] | TD100 (dose or concentration at which the compound was 100% toxic to uninfected cells) [7] | IC50 [4] | CC50 at 8 h [8]
1 | CC(C)(C)C(=O)OC1[C@H](Sc2ccc3ccccc3c2)CC(=O)C1(C)C (stereo in doubt) [CTM-193, 2,2-dimethylpropionic acid (1S,5R)-2,2-dimethyl-5-(naphthalen-2-ylsulfanyl)-3-oxocyclopentyl ester] | 50 µM | 23 µM | 26 µM | 3 µM | 32 µM | – | – | – | –
2 | COC(=O)[C@H](CSC1CC(=O)C[C@@H]1O[Si](C)(C)C(C)(C)C)NC(=O)OC(C)(C)C (some centres unmarked) [CTM-36] | – | – | – | – | – | inhibitors of NF-κB | >500 µM | 4 µM | –
3 | CC(C)(C)[Si](C)(C)O[C@H]1CC(=O)C[C@@H]1Sc1ccccn1 [CTM-86] | – | 7 µM | 20 µM | – | 36 µM | – | 10 µM | 2 µM | 96 µM
4 | CCOC(=O)[C@H](CS[C@H]1CC(=O)C[C@@H]1O[Si](C)(C)C(C)(C)C)NC(C)=O [CTM-131] | – | 125 µM | 70 µM | – | > 100 µM | – | 50 µM | 10 µM | > 800 µM
5 | COC(=O)[C@H](CSC1CCC(=O)C1)NC(=O)OC(C)(C)C (some centres unmarked) [CTM-49] | >500 µM | – | – | 20 µM | – | inhibitors of NF-κB | – | – | –
6 | COC(=O)CCS[C@H]1CC(=O)C[C@@H]1O[Si](C)(C)C(C)(C)C [CTM-88] | – | 45 µM | 60 µM | – | 65 µM | – | 50 µM | 10 µM | 477 µM
7 | COc1ccc(S[C@H]2CC(=O)C[C@@H]2O[Si](C)(C)C(C)(C)C)cc1 [CTM-169] | – | 22 µM | 26 µM | – | 38 µM | – | 50 µM | 1.5 µM | > 800 µM
8 | CC(C)(C)C(=O)OC1[C@@H](Sc2ccc3ccccc3c2)CC(=O)C1(C)C (stereo in doubt) [CTM-191, 2,2-dimethylpropionic acid (1R,5S)-2,2-dimethyl-5-(naphthalen-2-ylsulfanyl)-3-oxocyclopentyl ester] | 50 µM | 24 µM | 18 µM | 4 µM | 25 µM | – | – | – | –
9 | CC(C)(C)[Si](C)(C)O[C@H]1CC(=O)C[C@@H]1SCCS(=O)(=O)O [CTM-165] | – | 21 µM | 26 µM | – | 50 µM | – | 50 µM | 1 µM | > 800 µM
10 | CC(C)(C)[Si](C)(C)O[C@H]1CC(=O)C[C@@H]1Sc1ccncc1 [CTM-132] | – | 2.6 µM | 13 µM | – | 33 µM | – | 10 µM | 0.2 µM | 220 µM
11 | Cc1ccc(S[C@H]2CC(=O)C[C@@H]2O[Si](C)(C)C(C)(C)C)cc1 [CTM-80] | – | 16 µM | 60 µM | – | > 100 µM | – | 50 µM | 1 µM | > 800 µM
12 | CC(=O)N[C@@H](CS[C@H]1CC(=O)C[C@@H]1O[Si](C)(C)C(C)(C)C)C(=O)OC(C)(C)C [CTM-106] | – | 28 µM | 26 µM | – | > 100 µM | – | 50 µM | 4 µM | 536 µM
13 | CC(=O)Nc1ccc(S[C@H]2CC(=O)C[C@@H]2O[Si](C)(C)C(C)(C)C)cc1 [CTM-81] | – | 17 µM | 28 µM | – | 31 µM | – | 50 µM | 1 µM | 181 µM
14 | COC(=O)c1ccccc1S[C@H]1CC(=O)C[C@@H]1O[Si](C)(C)C(C)(C)C [CTM-82] | – | 16 µM | 35 µM | – | 54 µM | – | 50 µM | 1 µM | > 800 µM
15 | CC(=O)NCCS[C@H]1CC(=O)C[C@@H]1O[Si](C)(C)C(C)(C)C [CTM-83] | – | 27 µM | 27 µM | – | 47 µM | – | 50 µM | 3 µM | > 800 µM
16 | COC(=O)CS[C@H]1CC(=O)C[C@@H]1O[Si](C)(C)C(C)(C)C [CTM-87] | – | 38 µM | 48 µM | – | 52 µM | – | 50 µM | 4 µM | 260 µM
17 | COC(=O)[C@H](CSC1C=C(C(SC[C@H](NC(=O)OC(C)(C)C)C(=O)OC)C(C)C)C(=O)C1)NC(=O)OC(C)(C)C (some centres unmarked) [CTC-130] | – | – | – | – | – | inhibitors of NF-κB | – | – | –
18 | CC(S[C@H]1CC(=O)C[C@@H]1O[Si](C)(C)C(C)(C)C)C(=O)NCC(=O)O (some centres unmarked) [CTM-110] | – | 18 µM | 27 µM | – | > 100 µM | – | 50 µM | 1 µM | > 800 µM
19 | Cc1cc(C)n(CCS[C@H]2CC(=O)C[C@@H]2O[Si](C)(C)C(C)(C)C)n1 [CTM-109] | – | 33 µM | 29 µM | – | > 100 µM | – | 50 µM | 4 µM | 267 µM
